The values below come from patent publication US20240368135A1 (VERTEX PHARMACEUTICALS INCORPORATED, priority 2021, published 2024).

human NaV 1.8, sequence (Q9Y5Y9 126-399 limits assumed): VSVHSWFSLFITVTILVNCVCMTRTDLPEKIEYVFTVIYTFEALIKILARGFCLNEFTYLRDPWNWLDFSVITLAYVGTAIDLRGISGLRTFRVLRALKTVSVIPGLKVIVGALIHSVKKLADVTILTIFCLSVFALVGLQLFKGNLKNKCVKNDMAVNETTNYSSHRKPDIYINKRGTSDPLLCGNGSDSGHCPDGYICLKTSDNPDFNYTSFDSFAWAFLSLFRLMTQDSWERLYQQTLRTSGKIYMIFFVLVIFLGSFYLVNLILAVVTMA
human NaV 1.8, sequence (Q9Y5Y9 660-890 limits assumed): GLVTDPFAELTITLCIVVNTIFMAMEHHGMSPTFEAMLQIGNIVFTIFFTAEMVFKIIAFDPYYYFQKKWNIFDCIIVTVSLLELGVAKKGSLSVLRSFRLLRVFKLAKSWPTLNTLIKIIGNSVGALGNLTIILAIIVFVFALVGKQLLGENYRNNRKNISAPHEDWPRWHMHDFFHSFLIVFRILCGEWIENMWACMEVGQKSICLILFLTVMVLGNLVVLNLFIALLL
human NaV 1.8, sequence (Q9Y5Y9 1148-1722 limits assumed): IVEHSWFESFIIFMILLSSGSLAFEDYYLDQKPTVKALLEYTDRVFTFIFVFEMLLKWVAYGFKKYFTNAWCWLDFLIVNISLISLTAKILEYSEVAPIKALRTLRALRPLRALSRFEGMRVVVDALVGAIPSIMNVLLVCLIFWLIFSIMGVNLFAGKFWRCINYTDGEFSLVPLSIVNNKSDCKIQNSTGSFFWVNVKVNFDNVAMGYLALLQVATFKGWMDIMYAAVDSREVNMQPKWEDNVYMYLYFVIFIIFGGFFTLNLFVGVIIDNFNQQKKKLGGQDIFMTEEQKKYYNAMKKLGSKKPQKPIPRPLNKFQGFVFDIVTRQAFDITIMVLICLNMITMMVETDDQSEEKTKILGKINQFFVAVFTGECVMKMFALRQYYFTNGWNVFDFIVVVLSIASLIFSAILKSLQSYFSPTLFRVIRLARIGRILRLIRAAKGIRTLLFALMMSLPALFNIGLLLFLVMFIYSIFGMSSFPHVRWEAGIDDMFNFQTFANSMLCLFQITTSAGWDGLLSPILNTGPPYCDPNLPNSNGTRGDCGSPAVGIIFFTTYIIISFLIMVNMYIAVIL

In this experiment the target is human NaV 1.8 (Homo sapiens, UniProt Q9Y5Y9). As to the kind of experiment: E-VIPR assay detecting and measuring NaV inhibition properties. The experiment is classed as cell-based. The note with it: HEK cells expressing truncated human NaV 1.8; no human serum; read-out: IC50 in the E-VIPR Assay. The method in brief:
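Membrane potential was followed by coumarin/oxonol FRET during electrical field stimulation of matrigel-seeded HEK cells carrying truncated human NaV1.8 plus KIR2.1. Dosing used 11 points, 3-fold steps, top 300 nM final, 0.625% DMSO, with or without 25% human serum.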
The IC50 is the concentration that inhibits the measured activity by half. Regarding `CNC(COC)c1cc(NC(=O)[C@@H]2O[C@@](C)(C(F)(F)F)[C@@H](C)[C@H]2c2ccc(F)c(F)c2OC)ccn1` (single isomer, unassigned) [Compound 412, rel-(2R*,3S*,4S*,5R*)-3-(3,4-difluoro-2-methoxyphenyl)-N-(2-(2-methoxy-1-(methylamino)ethyl)-pyridin-4-yl)-4,5-dimethyl-5-(trifluoromethyl)-tetrahydrofuran-2-carboxamide], the IC50 is less than 10 nM. Take `Cc1nn(C(F)F)cc1NC(=O)[C@@H]1O[C@@](C)(C(F)(F)F)[C@@H](C)[C@H]1c1ccc(F)c(F)c1CO` [Compound 668, (2R,3S,4S,5R)-3-(3,4-difluoro-2-(hydroxymethyl)phenyl)-N-(1-(difluoromethyl)-3-methyl-1H-pyrazol-4-yl)-4,5-dimethyl-5-(trifluoromethyl)tetrahydrofuran-2-carboxamide]: the IC50 fell in the range of 10 to 100 nM. The value for `COc1c([C@H]2[C@H](C(=O)Nc3ccnc(N4CCCN(C)CC4=O)c3)O[C@@](C)(C(F)(F)F)[C@H]2C)ccc(F)c1F` [Compound 467, (2R,3S,4S,5R)-3-(3,4-difluoro-2-methoxyphenyl)-4,5-dimethyl-N-(2-(4-methyl-2-oxo-1,4-diazepan-1-yl)pyridin-4-yl)-5-(trifluoromethyl)tetrahydrofuran-2-carboxamide] was 10 to 100 nM.

As to `COc1c([C@H]2[C@H](C(=O)Nc3csnc3C)O[C@@](C)(C(F)(F)F)[C@H]2C)ccc(F)c1F` [Compound 327, (2R,3S,4S,5R)-3-(3,4-difluoro-2-methoxyphenyl)-4,5-dimethyl-N-(3-methylisothiazol-4-yl)-5-(trifluoromethyl)-tetrahydrofuran-2-carboxamide], the half-inhibitory concentration (IC50) is less than 10 nM. Then `COc1c([C@H]2[C@H](C(=O)Nc3ccnc(N4C(=O)CNC[C@H]4C)c3)O[C@@](C)(C(F)(F)F)[C@H]2C)ccc(F)c1F` [Compound 477, (2R,3S,4S,5R)-3-(3,4-difluoro-2-methoxyphenyl)-4,5-dimethyl-N-(2-((R)-2-methyl-6-oxopiperazin-1-yl)pyridin-4-yl)-5-(trifluoromethyl)tetrahydrofuran-2-carboxamide], with 10 to 100 nM. Then `COc1c([C@H]2[C@H](C(=O)Nc3ccc4nc(C(=O)N(C)C)cn4c3)O[C@@](C)(C(F)(F)F)[C@H]2C)ccc(F)c1F` [Compound 261, 6-((2R,3S,4S,5R)-3-(3,4-difluoro-2-methoxyphenyl)-4,5-dimethyl-5-(trifluoromethyl)tetrahydrofuran-2-carboxamido)-N,N-dimethylimidazo[1,2-a]pyridine-2-carboxamide], with 10 to 100 nM; and `C[C@H]1[C@@H](c2ccc(F)c(F)c2OC2CC(O)C2)[C@H](C(=O)Nc2cccnc2)O[C@@]1(C)C(F)(F)F` (stereo partly drawn) [Compound 654, (2R,3S,4S,5R)-3-(3,4-difluoro-2-((1S,3R)-3-hydroxycyclobutoxy)phenyl)-4,5-dimethyl-N-(pyridin-3-yl)-5-(trifluoromethyl)tetrahydrofuran-2-carboxamide], with less than 10 nM; and `COc1c([C@H]2[C@H](C(=O)Nc3ccnc(CN(C)C)c3)O[C@@](C)(C(F)(F)F)[C@H]2C)ccc(F)c1F` [Compound 183, (2R,3S,4S,5R)-3-(3,4-difluoro-2-methoxyphenyl)-N-(2-((dimethylamino)methyl)pyridin-4-yl)-4,5-dimethyl-5-(trifluoromethyl)tetrahydrofuran-2-carboxamide], with less than 10 nM. The value for `COc1c([C@H]2[C@H](C(=O)Nc3c(C)ncn3C)O[C@@](C)(C(F)(F)F)[C@H]2C)ccc(F)c1F` [Compound 319, (2R,3S,4S,5R)-3-(3,4-difluoro-2-methoxyphenyl)-N-(1,4-dimethyl-1H-imidazol-5-yl)-4,5-dimethyl-5-(trifluoromethyl)-tetrahydrofuran-2-carboxamide] was no less than 1000 nM.
